Results from patent EP4434982A1, “(S)-2-(2-METHYLAZETIDIN-1-YL)PYRIMIDINE DERIVATIVE AND PHARMACEUTICAL COMPOSITION COMPRISING SAME” (LG Chem, Ltd., priority 2021, dated 2023).

Target: T1, Ketohexokinase (KHK) (Homo sapiens, UniProt P50053)
T1 construct: His tag; made in house; host or cells: E. coli
T1 sequence (P50053 1-298): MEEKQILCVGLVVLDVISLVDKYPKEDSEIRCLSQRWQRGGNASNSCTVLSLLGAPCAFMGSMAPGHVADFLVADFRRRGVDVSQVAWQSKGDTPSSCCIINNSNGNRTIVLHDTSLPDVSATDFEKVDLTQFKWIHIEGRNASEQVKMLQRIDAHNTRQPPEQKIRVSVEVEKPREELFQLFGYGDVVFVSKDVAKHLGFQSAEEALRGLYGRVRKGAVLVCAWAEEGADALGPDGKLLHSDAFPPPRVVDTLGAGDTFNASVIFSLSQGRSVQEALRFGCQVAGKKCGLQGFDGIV
Assay: measurement of activity in vitro of ketohexokinase inhibitor (Transcreener ADP2 TR-FRET Red Assay, ADP produced)
Assay type: biochemical
Details: KHK pre-reacted with inhibitor 30 minutes, then substrate (ATP, fructose) 15 minutes; Ki by Morrison equation
Description: Ketohexokinase (KHK) was expressed in E. Coli and purified using His tag. In order to measure the activity of the purified KHK, Transcreener ADP2 TR-FRET Red Assay kit of BellBrook Labs was used. A method of measuring the amount of ADP produced was used using TR-FRET after reacting a solution including a suitable concentration of KHK protein and ATP, and fructose for 15 minutes. In order to see the activity of a ketohexokinase (KHK) inhibitor, ketohexokinase (KHK) and a suitable concentration of an inhibitor were reacted first for 30 minutes, and then, reacted with a solution including the substrate of ketohexokinase (KHK) for 15 minutes. Then, reaction for TR-FRET was performed for 1 hour, and fluorescence was measured using Envision equipment of PerkinElmer. According to the optimization procedure of TR-FRET published by BellBrook Lab, the set value of the Envision equipment was determined.
The result values by concentration of the ketohexokinase (KHK) inhibitor were determined as the ratio of a wavelength of 665 nm and a wavelength of 615nm. The 665/615 ratio value by concentration of each inhibitor was converted to ADP concentration based on ADP standard curve, and inhibition activity Ki value was obtained using Morrison equation by statistical software (Prizm). Meanwhile, the Ki value is a value representing the binding affinity of the inhibitor and an enzyme, and a lower value means better inhibitory activity.

Row | Compound | Ki
1 | C[C@H]1CCN1c1nc(N2CCN(CC(=O)N3CCNCC3)CC2)c2c(n1)C(F)(F)CC2 [Example 13, (S)-2-4-(7,7-difluoro-2-(2-methylazetidin-1-yl)-6,7-dihydro-5H-cyclopenta[d]pyrimidin-1-yl)-1-(piperazin-1-yl)ethan-1-one] | ≤ 10 nM
2 | C[C@H]1CCN1c1nc(N2C[C@@H]3[C@@H](CC(=O)N4CCNCC4)[C@@H]3C2)c2c(n1)C(F)(F)CC2 [Example 18, 2-((1R,5S,6R)-3-(7,7-difluoro-2-((S)-2-methylazetidin-1-yl)-6,7-dihydro-5H-cyclopenta[d]pyrimidin-4-yl)-3-azabicyclo[3.1.0]hexan-6-yl)-1-(piperazin-1-yl)ethan-1-one] | ≤ 10 nM
3 | C[C@H]1CCN1c1nc(N2C[C@@H]3[C@@H](CC(=O)N4CCNC(=O)C4)[C@@H]3C2)c2c(n1)C(F)(F)CC2 [Example 20, 4-(2-((1R,5S,6R)-3-(7,7-difluoro-2-((S)-2-methylazetidin-1-yl)-6,7-dihydro-5H-cyclopenta[d]pyrimidin-4-yl)-3-azabicyclo[3.1.0]hexan-6-yl)acetyl)piperazin-2-one] | ≤ 10 nM
4 | C[C@H]1CCN1c1nc(N2CCC(OCC(=O)N3CCNCC3)CC2)c2c(n1)C(F)(F)CC2 [Example 10, (S)-2-((1-(7,7-difluoro-2-(2-methylazetidin-1-yl)-6,7-dihydro-5H-cyclopenta[d]pyrimidin-4-yl)piperidin-4-yl)oxy)-1-(piperazin-1-yl)ethan-1-one] | ≤ 10 nM
5 | C[C@H]1CCN1c1nc(N2CC(OCC(=O)N3CCNCC3)C2)c(Cl)c(C(F)(F)F)n1 [Example 2, (S)-2-((1-(5-chloro-2-(2-methylazetidin-1-yl)-6-(trifluoromethyl)pyrimidin-4-yl)azetidin-3-yl)oxy)-1-(piperazin-1-yl)ethan-1-one] | ≤ 10 nM
6 | C[C@H]1CCN1c1nc(N2C[C@@H]3[C@@H](CC(=O)N4CCN(C)CC4)[C@@H]3C2)c2c(n1)C(F)(F)CC2 [Example 19, 2-((1R,5S,6R)-3-(7,7-difluoro-2-((S)-2-methylazetidin-1-yl)-6,7-dihydro-5H-cyclopenta[d]pyrimidin-4-yl)-3-azabicyclo[3.1.0]hexan-6-yl)-1-(4-methylpiperazin-1-yl)ethan-1-one] | ≤ 10 nM
7 | Cc1c(N2CCC(OCC(=O)N3CCNCC3)CC2)nc(N2CC[C@@H]2C)nc1C(F)(F)F [Example 28] | 10 to 100 nM
8 | C[C@H]1CCN1c1nc(-c2ccc(CC(=O)O)cc2)c2c(n1)C(F)(F)CC2 [Example 29] | 10 to 100 nM
9 | C[C@H]1CCN1c1nc(N2CCN(CC(=O)N3CCNCC3)C(=O)C2)cc(C(F)(F)F)n1 [Example 12, (S)-4-(2-(2-methylazetidin-1-yl)-6-(trifluoromethyl)pyrimidin-4-yl)-1-(2-oxo-2-(piperazin-1-yl)ethyl)piperazin-2-one] | 10 to 100 nM
10 | CC1CCN1c1nc(N2CC3CC(C2)C3CC(=O)N2CCNCC2)c2c(n1)C(F)(F)CCC2 [Example 23, 2-((1R,5S,6S)-3-(8,8-difluoro-2-((S)-2-methylazetidin-1-yl)-5,6,7,8-tetrahydroquinazolin-4-yl)-3-azabicyclo[3.1.1]heptan-6-yl)-1-(piperazin-1-yl)ethan-1-one] | 10 to 100 nM
11 | C[C@H]1CCN1c1nc(N2CCN(CC(=O)N3CCNCC3)CC2)cc(C(F)(F)F)n1 [Example 11, (S)-2-(4-(2-(2-methylazetidin-1-yl)-6-(trifluoromethyl)pyrimidin-4-yl)piperazin-1-yl)-1-(piperazin-1-yl)ethan-1-one] | ≤ 10 nM
12 | C[C@H]1CCN1c1nc(N2CC[C@H](OCC(=O)N3CCNCC3)C2)c2c(n1)C(F)(F)CC2 [Example 7, 2-(((2S,3R)-1-(7,7-difluoro-2-((S)-2-methylazetidin-1-yl)-6,7-dihydro-5H-cyclopenta[d]pyrimidin-4-yl)pyrrolidin-3-yl)oxy)-1-(piperazin-1-yl)ethan-1-one] | ≤ 10 nM
13 | CC(=O)N1CCN(C(=O)C[C@@H]2[C@@H]3C[C@H]2CN(c2nc(N4CC[C@@H]4C)nc4c2CCC4(F)F)C3)CC1 [Example 22, 1-(4-acetylpiperazin-1-yl)-2-((1R,5S,6S)-3-(7,7-difluoro-2-((S)-2-methylazetidin-1-yl)-6,7-dihydro-5H-cyclopenta[d]pyrimidin-4-yl)-3-azabicyclo[3.1.1]heptan-6-yl)ethan-1-one] | 100 to 1000 nM
14 | C[C@H]1CCN1c1nc(N2C[C@H]3C[C@@H](C2)[C@@H]3CC(=O)N2CCNCC2)c2c(n1)C(F)(F)CC2 [Example 21, 2-((1R,5S,6S)-3-(7,7-difluoro-2-((S)-2-methylazetidin-1-yl)-6,7-dihydro-5H-cyclopenta[d]pyrimidin-4-yl)-3-azabicyclo[3.1.0]heptan-6-yl)-1-(piperazin-1-yl)ethan-1-one] | ≤ 10 nM
15 | C[C@H]1CCN1c1nc(-c2ccc(CC(=O)N3CCNCC3)nc2)cc(C(F)(F)F)n1 [Example 31] | ≤ 10 nM
16 | C[C@H]1CCN1c1nc(N2CC(OCC(=O)N3CCNCC3)C2)cc(C(F)(F)F)n1 [Example 1, (S)-2-((1-(2-(2-methylazetidin-1-yl)-6-(trifluoromethyl)pyrimidin-4-yl)azetidin-3-yl)oxy)-1-(piperazin-1-yl)ethan-1-one] | 10 to 100 nM
17 | C[C@H]1CCN1c1nc(N2CC(OCC(=O)N3CCNCC3)C2)c2c(n1)C(F)(F)CCC2 [Example 4] | 10 to 100 nM
18 | C[C@H]1CCN1c1nc(N2CCN(CC(=O)N3CCNCC3)C(=O)C2)c2c(n1)C(F)(F)CC2 [Example 16, (S)-4-(7,7-difluoro-2-(2-methylazetidin-1-yl)-6,7-dihydro-5H-cyclopenta[d]pyrimidin-4-yl)-1-(2-oxo-2-(piperazin-1-yl)ethyl)piperazin-2-one] | ≤ 10 nM
19 | C[C@H]1CCN1c1nc(N2C[C@H]3C[C@@H](C2)[C@@H]3CC(=O)N2CCNCC2)c2c(n1)C(F)(F)OCC2 [Example 24, 2-((1R,5S,6S)-3-(8,8-difluoro-2-((S)-2-methylazetidin-1-yl)-5,8-dihydro-6H-pyrazol[3,4-d]pyrimidin-4-yl)-3-azabicyclo[3.1.1]heptan-6-yl)-1-(piperazin-1-yl)ethan-1-one] | 10 to 100 nM
20 | Cc1c(-c2ccc(OCC(=O)N3CCNCC3)nc2)nc(N2CC[C@@H]2C)nc1C(F)(F)F [Example 40, (S)-2-((5-(5-methyl-2-(2-methylazetidin-1-yl)-6-(trifluoromethyl)pyrimidin-4-yl)pyridin-2-yl)oxy)-1-(piperazin-1-yl)ethan-1-one] | ≤ 10 nM
21 | C[C@H]1CCN1c1nc(N2CC(OCC(=O)N3CCNCC3)C2)c2c(n1)C(F)(F)CC2 [Example 3, (S)-2-((1-(7,7-difluoro-2-(2-methylazetidin-1-yl)-6,7-dihydro-5H-cyclopenta[d]pyrimidin-4-yl)azetidin-3-yl)oxy)-1-(piperazin-1-yl)ethan-1-one] | ≤ 10 nM
22 | Cc1c(N2CC(OCC(=O)N3CCNCC3)C2)nc(N2CC[C@@H]2C)nc1C(F)(F)F [Example 26, (S)-2-((1-(5-methyl-2-(2-methylazetidin-1-yl)-6-(trifluoro)pyrimidin-4-yl)azetidin-3-yl)oxy)-1-(piperazin-1-yl)ethan-1-one] | ≤ 10 nM
23 | C[C@H]1CCN1c1nc(N2CCN(C(=O)CC(=O)N3CCNCC3)CC2)c2c(n1)C(F)(F)CC2 [Example 15] | ≤ 10 nM
24 | C[C@H]1CCN1c1nc(C2CCN(CC(=O)N3CCNCC3)CC2)c2c(n1)C(F)(F)CC2 [Example 17, (S)-2-(4-(7,7-difluoro-2-(2-methylazetidin-1-yl)-6,7-dihydro-5H-cyclopenta[d]pyrimidin-4-yl)piperidin-1-yl)-1-(piperazin-1-yl)ethan-1-one] | ≤ 10 nM
